In patent US11426473B2, “Nitrogen-containing compound or salt thereof, or metal complex thereof” (FUJIFILM Corporation, priority 2013, dated 2022):

Experiments:
Integrin αvβ3 = biological target: T1, Integrin αvβ3 (Homo sapiens, UniProt P05106+P06756); assay: Integrin αvβ3 binding affinity test; details: inhibition of biotinylated vitronectin binding to immobilized αvβ3; read-out: IC50 value αv β3
T1 construct: purchased Chemicon International, Inc
Method: (§1) […] αvβ3 (Chemicon International, Inc.) was immobilized on each well of a 96-well plate (Corning Inc.). Each well was blocked with a 1% Block Ace (DS Pharma Biomedical Co., Ltd) solution and then washed with T-PBS (PBS containing 0.05% Tween 20). Evaluation compound solutions having a 2-fold concentration (10 concentrations of 3.16-fold dilutions from 0.3 μmol/L, buffer (20 mM Tris-HCl pH 7.5, 150 mM NaCl, 1 mM CaCl2, 1 mM MgCl2, and 1 mM MnCl2)) and a 4 μg/mL biotinylated vitronectin solution (vitronectin (Upstate Biotechnology Inc.) was labeled with EZ-Link Sulfo-NHS-Biotinylation Kit (Pierce/Thermo Fisher Scientific Inc.) and then concentration-adjusted) were each added at 50 μL/well, and the plate was shaken at room temperature for 2 hours. After washing with T-PBS, a 0.2 μg/mL avidin peroxidase (Pierce/Thermo Fisher Scientific Inc.) solution was added thereto, and the plate was shaken at room temperature for 1 hour. After washing with T-PBS, color was developed by an o-phenylenediamine (Sigma-Aldrich Inc.) solution (the reaction was terminated by the addition of 4 mol/L sulfuric acid), and the absorbance was measured (490 nm, Reference: 595 nm). The IC50 value was calculated using XLfit 3.0 (ID Business Solutions Ltd.). RGDfV (Bachem AG) was measured in duplicate as a QC sample for each plate.

Integrin αvβ5 = biological target: T2, Integrin αvβ5 (Homo sapiens, UniProt P06756+P18084); assay: Integrin αvβ5 binding affinity test; details: inhibition of biotinylated vitronectin binding to immobilized αvβ5; read-out: IC50 value αvβ5
T2 construct: purchased Chemicon International, Inc
Method: as §1, with “αvβ5” for “αvβ3”, “PBST (10 mM Na2HPO4 pH 7.5, 150 mM NaCl, and 0.01%” for “T-PBS (PBS containing 0.05%”, “PBST,” for “T-PBS,”

[1] = tested on: U87MG cells subcutaneous tumor; assay: Concentration of radioactivity in tumor of labeled compounds (Test Example 4); format: in vivo, mouse; details: tail vein, 111In 740 kBq, 64Cu and 90Y 500 kBq
Method: U87MG cells were subcutaneously transplanted at 1×10^7 cells/mouse to the right flank of Balb/cAJcl-nu/nu (CLEA Japan, Inc. or Japan SLC, Inc., 6 to 9 weeks old). After 2 to 3 weeks, the mice were divided into groups each involving 3 individuals per point in time when their tumors became 200 to 500 mm^3. The ^111In-labeled compound (740 kBq) was administered to the tail veins of the mice.
After a given time, the animals were sacrificed to extract their tumors. The weights of the tumors were measured, and the radioactivity was measured using a gamma counter to calculate the concentration of radioactivity in the tumors (% ID/g). In the same way as above, the concentration of radioactivity in the tumors (% ID/g) was calculated for the ^64Cu-labeled compound (500 kBq) and the ^90Y-labeled compound (500 kBq).

T1 sequence (P06756 31-889 limits assumed): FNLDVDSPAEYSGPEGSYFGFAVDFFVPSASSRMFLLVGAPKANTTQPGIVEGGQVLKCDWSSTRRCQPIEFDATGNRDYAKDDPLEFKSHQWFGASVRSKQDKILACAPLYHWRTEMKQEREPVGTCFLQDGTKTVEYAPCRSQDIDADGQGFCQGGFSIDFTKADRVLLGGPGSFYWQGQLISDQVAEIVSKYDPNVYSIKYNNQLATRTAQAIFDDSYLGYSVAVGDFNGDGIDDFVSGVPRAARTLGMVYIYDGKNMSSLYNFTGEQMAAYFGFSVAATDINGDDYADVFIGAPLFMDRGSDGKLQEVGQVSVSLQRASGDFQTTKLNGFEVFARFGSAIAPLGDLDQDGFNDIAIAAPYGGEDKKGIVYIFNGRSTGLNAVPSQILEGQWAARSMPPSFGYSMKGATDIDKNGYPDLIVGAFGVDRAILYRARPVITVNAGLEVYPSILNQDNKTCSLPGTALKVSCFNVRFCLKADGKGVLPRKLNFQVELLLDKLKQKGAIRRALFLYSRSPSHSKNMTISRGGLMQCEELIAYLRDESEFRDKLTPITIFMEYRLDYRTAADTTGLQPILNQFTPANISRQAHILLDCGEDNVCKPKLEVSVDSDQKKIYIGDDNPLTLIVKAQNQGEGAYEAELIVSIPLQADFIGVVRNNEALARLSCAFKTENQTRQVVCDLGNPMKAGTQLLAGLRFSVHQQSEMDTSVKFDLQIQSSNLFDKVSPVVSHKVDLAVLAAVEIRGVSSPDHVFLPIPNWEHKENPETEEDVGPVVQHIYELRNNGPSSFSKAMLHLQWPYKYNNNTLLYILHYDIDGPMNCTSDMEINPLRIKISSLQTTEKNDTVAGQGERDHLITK
T1 sequence (P06756 891-1048 partner limits assumed): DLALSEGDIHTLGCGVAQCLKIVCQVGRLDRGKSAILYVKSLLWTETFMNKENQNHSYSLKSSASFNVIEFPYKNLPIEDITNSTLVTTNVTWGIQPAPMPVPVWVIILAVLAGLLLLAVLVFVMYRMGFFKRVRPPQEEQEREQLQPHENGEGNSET
T1 sequence (P05106 27-788): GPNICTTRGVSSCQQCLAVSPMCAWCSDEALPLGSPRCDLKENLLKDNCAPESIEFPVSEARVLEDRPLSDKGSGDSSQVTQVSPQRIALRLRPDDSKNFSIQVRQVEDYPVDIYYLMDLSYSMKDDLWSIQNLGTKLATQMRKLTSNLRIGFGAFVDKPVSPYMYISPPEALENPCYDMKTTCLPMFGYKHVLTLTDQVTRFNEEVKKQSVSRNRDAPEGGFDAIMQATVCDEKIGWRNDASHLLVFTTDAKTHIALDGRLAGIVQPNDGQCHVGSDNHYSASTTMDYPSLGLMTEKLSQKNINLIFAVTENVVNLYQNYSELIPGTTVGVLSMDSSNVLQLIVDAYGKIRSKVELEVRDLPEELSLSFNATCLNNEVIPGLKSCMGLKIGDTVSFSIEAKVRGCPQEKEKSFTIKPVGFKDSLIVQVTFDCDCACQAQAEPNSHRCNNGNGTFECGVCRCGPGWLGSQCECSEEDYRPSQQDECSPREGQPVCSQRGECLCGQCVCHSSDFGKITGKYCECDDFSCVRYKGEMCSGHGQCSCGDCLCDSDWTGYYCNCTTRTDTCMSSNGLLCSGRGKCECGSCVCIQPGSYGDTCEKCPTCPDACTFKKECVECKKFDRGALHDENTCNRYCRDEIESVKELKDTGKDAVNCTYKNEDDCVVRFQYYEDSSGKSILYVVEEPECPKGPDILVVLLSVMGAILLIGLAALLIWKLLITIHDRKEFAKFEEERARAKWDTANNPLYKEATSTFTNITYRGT
T2 sequence (P06756 31-889 limits assumed): as the sequence (P06756 31-889 limits assumed) above
T2 sequence (P06756 891-1048 partner limits assumed): as the sequence (P06756 891-1048 partner limits assumed) above
T2 sequence (P18084 24-799): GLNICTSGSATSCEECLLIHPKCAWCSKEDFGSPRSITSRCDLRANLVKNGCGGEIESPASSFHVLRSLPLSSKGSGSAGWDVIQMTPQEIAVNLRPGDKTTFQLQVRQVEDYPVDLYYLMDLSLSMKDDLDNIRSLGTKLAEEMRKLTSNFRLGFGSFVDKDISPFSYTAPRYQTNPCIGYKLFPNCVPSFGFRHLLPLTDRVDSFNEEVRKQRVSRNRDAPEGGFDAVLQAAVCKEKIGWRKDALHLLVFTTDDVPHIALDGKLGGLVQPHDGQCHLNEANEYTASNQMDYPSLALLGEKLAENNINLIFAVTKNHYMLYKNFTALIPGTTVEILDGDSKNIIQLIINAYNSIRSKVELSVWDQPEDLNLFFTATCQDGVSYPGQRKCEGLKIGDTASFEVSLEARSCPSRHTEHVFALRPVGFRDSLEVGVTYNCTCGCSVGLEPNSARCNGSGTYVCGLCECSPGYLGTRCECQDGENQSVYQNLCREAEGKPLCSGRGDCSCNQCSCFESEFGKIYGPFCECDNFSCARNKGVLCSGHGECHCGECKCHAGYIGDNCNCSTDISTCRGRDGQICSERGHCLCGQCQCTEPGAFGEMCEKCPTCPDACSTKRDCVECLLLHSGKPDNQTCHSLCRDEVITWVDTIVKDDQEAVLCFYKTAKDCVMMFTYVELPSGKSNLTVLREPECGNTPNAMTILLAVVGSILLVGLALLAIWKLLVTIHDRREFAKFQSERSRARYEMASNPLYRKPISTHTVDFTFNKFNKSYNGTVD

IC50 (Integrin αvβ3) | Concentration of radioactivity in tumor ([1]; 4 hours later) | Concentration of radioactivity in tumor ([1]; 24 hours later) | Compound | IC50 (Integrin αvβ5)
– | 12.80 % ID/g | 12.40 % ID/g | Cc1cc(OCCCC(=O)NCCNC(=O)C(CS(=O)(=O)O)NC(=O)C(CS(=O)(=O)O)NC(=O)CN2CCN(CC(=O)[O-])CCN(CC(=O)[O-])CCN(CC(=O)[O-])CC2)cc(C)c1S(=O)(=O)NC(CNC(=O)CCCCc1ccc2c(n1)NCCC2)C(=O)O.[111In+3] (stereo not drawn) [[^111In]-(O10)] | –
– | 6.95 % ID/g | 3.34 % ID/g | Cc1cc(OCCCC(=O)NCCNC(=O)C(CS(=O)(=O)O)NC(=O)C(CS(=O)(=O)O)NC(=O)CN2CCN(CC(=O)[O-])CCN(CC(=O)[O-])CCN(CC(=O)[O-])CC2)cc(C)c1S(=O)(=O)NC(CNC(=O)c1ccc(CCCNc2ccccn2)cc1)C(=O)O.[111In+3] (stereo not drawn) [[^111In]-(Z8)] | –
– | 10.60 % ID/g | 9.95 % ID/g | O=C([O-])CN1CCN(CC(=O)[O-])CCN(CC(=O)NC(CS(=O)(=O)O)C(=O)NC(CS(=O)(=O)O)C(=O)NCCNC(=O)CCCOc2cncc(C(CC(=O)O)n3ccc4cc(OCCc5ccc6c(n5)NCCC6)ccc43)c2)CCN(CC(=O)[O-])CC1.[111In+3] (mixture of isomers) [[^111In]-(I21)] | –
– | 10.50 % ID/g | 7.73 % ID/g | Cc1cc(OCCCC(=O)NCCNC(=O)COCCOCCNC(=O)CN2CCN(CC(=O)[O-])CCN(CC(=O)[O-])CCN(CC(=O)[O-])CC2)cc(C)c1S(=O)(=O)N[C@@H](CNC(=O)c1ccc(CCc2ccc3c(n2)NCCC3)cc1)C(=O)O.[111In+3] [[^111In]-(D3)] | –
– | 11.80 % ID/g | 8.41 % ID/g | Cc1cc(OCCCC(=O)NCCNC(=O)COCCOCCNC(=O)COCCOCCNC(=O)CN2CCN(CC(=O)[O-])CCN(CC(=O)[O-])CCN(CC(=O)[O-])CC2)cc(C)c1S(=O)(=O)N[C@@H](CNC(=O)c1ccc(CCc2ccc3c(n2)NCCC3)cc1)C(=O)O.[111In+3] [[^111In]-(F3)] | –
– | 9.17 % ID/g | 8.74 % ID/g | Cc1cc(OCCCC(=O)NCCNC(=O)C(CS(=O)(=O)O)NC(=O)CCC(NC(=O)CN2CCN(CC(=O)[O-])CCN(CC(=O)[O-])CCN(CC(=O)[O-])CC2)C(=O)NC(CS(=O)(=O)O)C(=O)NCCNC(=O)CCCOc2cc(C)c(S(=O)(=O)NC(CNC(=O)c3ccc(CCc4ccc5c(n4)NCCC5)cc3)C(=O)O)c(C)c2)cc(C)c1S(=O)(=O)NC(CNC(=O)c1ccc(CCc2ccc3c(n2)NCCC3)cc1)C(=O)O.[111In+3] (stereo not drawn) [[^111In]-(H9)] | –
– | 11.00 % ID/g | 12.40 % ID/g | Cc1cc(OCCCC(=O)NCCNC(=O)COCCOCCNC(=O)C(CCCCN)NC(=O)CN2CCN(CC(=O)[O-])CCN(CC(=O)[O-])CCN(CC(=O)[O-])CC2)cc(C)c1S(=O)(=O)NC(CNC(=O)c1ccc(CCc2ccc3c(n2)NCCC3)cc1)C(=O)O.[111In+3] (stereo not drawn) [[^111In]-(E3)] | –

The remaining lines, values behind:

Compound | IC50 (Integrin αvβ3) | Concentration of radioactivity in tumor ([1]; 4 hours later) | Concentration of radioactivity in tumor ([1]; 24 hours later) | IC50 (Integrin αvβ5)
Cc1cc(OCCCC(=O)NCCNC(=O)[C@H](CS(=O)(=O)O)NC(=O)[C@H](CS(=O)(=O)O)NC(=S)Nc2ccc(C[C@@H](CN(CC(=O)O)CC(C)N(CC(=O)O)CC(=O)O)N(CC(=O)O)CC(=O)O)cc2)cc(C)c1S(=O)(=O)N[C@@H](CNC(=O)c1ccc(CCc2ccc3c(n2)NCCC3)cc1)C(=O)O (stereo partly drawn) [Compound R3, 2,2′-((1-(((S)-2-(bis(carboxymethyl)amino)-3-(4-(3-((R)-1-(((R)-1-((2-(4-(4-(N—((S)-1-carboxy-2-(4-(2-(5,6,7,8-tetrahydro-1,8-naphthyridin-2-yl)ethyl)benzamido)ethyl)sulfamoyl)-3,5-dimethylphenoxy)butanamido)ethyl)amino)-1-oxo-3-sulfopropan-2-yl)amino)-1-oxo-3-sulfopropan-2-yl)thioureido)phenyl)propyl) (carboxymethyl)amino)propan-2-yl)azanediyl)diacetic acid] | < 1 nM | – | – | < 1 nM
Cc1cc(OCCCC(=O)NCCNC(=O)CN2CCN(CC(=O)O)CCN(CC(=O)O)CCN(CC(=O)O)CC2)cc(C)c1S(=O)(=O)N[C@@H](CNC(=O)c1ccc(CCc2ccc3c(n2)NCCC3)cc1)C(=O)O [Compound S2, (S)-2,2′,2″-(10-(2-((2-(4-(4-(N-(1-carboxy-2-(4-(2-(5,6,7,8-tetrahydro-1,8-naphthyridin-2-yl)ethyl)benzamido)ethyl)sulfamoyl)-3,5-dimethylphenoxy)butanamido)ethyl)amino)-2-oxoethyl)-1,4,7,10-tetraazacyclododecane-1,4,7-triyl)triacetic acid] | < 1 nM | – | – | < 1 nM
Cc1cc(OCCCC(=O)NCCNC(=O)[C@H](CS(=O)(=O)O)NC(=O)[C@H](CS(=O)(=O)O)NC(=O)CN2CCN(CC(=O)[O-])CCN(CC(=O)[O-])CCN(CC(=O)[O-])CC2)cc(C)c1S(=O)(=O)N[C@@H](CNC(=O)c1ccc(CCc2cccc(N)n2)cc1)C(=O)O.[111In+3] [[^111In]-(N3)] | – | 9.75 % ID/g | 5.93 % ID/g | –
O=C(O)C[C@H](NC(=O)c1ccc(CCc2ccc3c(n2)NCCC3)cc1)c1ccc(OCCCC(=O)NCCNC(=O)[C@H](CS(=O)(=O)O)NC(=O)[C@H](CS(=O)(=O)O)NC(=O)CN2CCN(CC(=O)O)CCN(CC(=O)O)CCN(CC(=O)O)CC2)c(F)c1 [Compound Q12, 2,2′,2″-(10-((4R,7R)-16-(4-((S)-2-carboxy-1-(4-(2-(5,6,7,8-tetrahydro-1,8-naphthyridin-2-yl)ethyl)benzamido)ethyl)-2-fluorophenoxy)-2,5,8,13-tetraoxo-4,7-bis(sulfomethyl)-3,6,9,12-tetraazahexadecyl)-1,4,7,10-tetraazacyclododecane-1,4,7-triyl)triacetic acid] | < 1 nM | – | – | –
Cc1cc(OCCCC(=O)NCCNC(=O)[C@H](CS(=O)(=O)O)NC(=O)CN2CCN(CC(=O)[O-])CCN(CC(=O)[O-])CCN(CC(=O)[O-])CC2)cc(C)c1S(=O)(=O)N[C@@H](CNC(=O)c1ccc(CCc2ccc3c(n2)NCCC3)cc1)C(=O)O.[111In+3] [[^111In]-(B2)] | – | 8.58 % ID/g | 11.00 % ID/g | –
Cc1cc(OCCCC(=O)NCCNC(=O)COCCOCCNC(=O)[C@H](CS(=O)(=O)O)NC(=O)CN2CCN(CC(=O)[O-])CCN(CC(=O)[O-])CCN(CC(=O)[O-])CC2)cc(C)c1S(=O)(=O)N[C@@H](CNC(=O)c1ccc(CCc2ccc3c(n2)NCCC3)cc1)C(=O)O.[111In+3] [[^111In]-(G3)] | – | 10.50 % ID/g | 9.82 % ID/g | –
Cc1cc(OCCCC(=O)NCCNC(=O)[C@H](CS(=O)(=O)O)NC(=O)[C@H](CS(=O)(=O)O)NC(=O)CN2CCN(CC(=O)[O-])CCN(CC(=O)[O-])CCN(CC(=O)[O-])CC2)cc(C)c1S(=O)(=O)N[C@@H](CNC(=O)c1ccc(CCc2ccc3c(n2)NCCC3)s1)C(=O)O.[111In+3] [[^111In]-(X9)] | – | 8.54 % ID/g | 8.54 % ID/g | –
